Read-outs that look alike come from different tables or passages of the source.
Target: T1, F508del (Homo sapiens, UniProt P13569, DEL508-508)
T1 construct: expressed in transfected cells
Test: Protocol 2: FRET membrane potential optical assay (VIPR), identification of correction compounds
Assay type: cell-based
Summary of the method: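 NIH3T3 mouse fibroblasts stably expressing F508del were treated with test compound for 16 hrs at 37° C. in serum-free medium; 27° C. incubation served as positive control. F508del was activated with 10 μM forskolin plus 20 μM genistein in Cl^−-free medium, and Cl^− efflux-driven depolarization was read by DiSBAC2(3)/CC2-DMPE FRET.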

[1] = F508del CFTR modulator activity, compounds of Table 1, read-out: EC30
[2] = Table 3, compounds of Table 1 as modulators of CFTR activity, protocol not stated

T1 sequence (P13569 with tags, fused parts or gaps DEL508-508): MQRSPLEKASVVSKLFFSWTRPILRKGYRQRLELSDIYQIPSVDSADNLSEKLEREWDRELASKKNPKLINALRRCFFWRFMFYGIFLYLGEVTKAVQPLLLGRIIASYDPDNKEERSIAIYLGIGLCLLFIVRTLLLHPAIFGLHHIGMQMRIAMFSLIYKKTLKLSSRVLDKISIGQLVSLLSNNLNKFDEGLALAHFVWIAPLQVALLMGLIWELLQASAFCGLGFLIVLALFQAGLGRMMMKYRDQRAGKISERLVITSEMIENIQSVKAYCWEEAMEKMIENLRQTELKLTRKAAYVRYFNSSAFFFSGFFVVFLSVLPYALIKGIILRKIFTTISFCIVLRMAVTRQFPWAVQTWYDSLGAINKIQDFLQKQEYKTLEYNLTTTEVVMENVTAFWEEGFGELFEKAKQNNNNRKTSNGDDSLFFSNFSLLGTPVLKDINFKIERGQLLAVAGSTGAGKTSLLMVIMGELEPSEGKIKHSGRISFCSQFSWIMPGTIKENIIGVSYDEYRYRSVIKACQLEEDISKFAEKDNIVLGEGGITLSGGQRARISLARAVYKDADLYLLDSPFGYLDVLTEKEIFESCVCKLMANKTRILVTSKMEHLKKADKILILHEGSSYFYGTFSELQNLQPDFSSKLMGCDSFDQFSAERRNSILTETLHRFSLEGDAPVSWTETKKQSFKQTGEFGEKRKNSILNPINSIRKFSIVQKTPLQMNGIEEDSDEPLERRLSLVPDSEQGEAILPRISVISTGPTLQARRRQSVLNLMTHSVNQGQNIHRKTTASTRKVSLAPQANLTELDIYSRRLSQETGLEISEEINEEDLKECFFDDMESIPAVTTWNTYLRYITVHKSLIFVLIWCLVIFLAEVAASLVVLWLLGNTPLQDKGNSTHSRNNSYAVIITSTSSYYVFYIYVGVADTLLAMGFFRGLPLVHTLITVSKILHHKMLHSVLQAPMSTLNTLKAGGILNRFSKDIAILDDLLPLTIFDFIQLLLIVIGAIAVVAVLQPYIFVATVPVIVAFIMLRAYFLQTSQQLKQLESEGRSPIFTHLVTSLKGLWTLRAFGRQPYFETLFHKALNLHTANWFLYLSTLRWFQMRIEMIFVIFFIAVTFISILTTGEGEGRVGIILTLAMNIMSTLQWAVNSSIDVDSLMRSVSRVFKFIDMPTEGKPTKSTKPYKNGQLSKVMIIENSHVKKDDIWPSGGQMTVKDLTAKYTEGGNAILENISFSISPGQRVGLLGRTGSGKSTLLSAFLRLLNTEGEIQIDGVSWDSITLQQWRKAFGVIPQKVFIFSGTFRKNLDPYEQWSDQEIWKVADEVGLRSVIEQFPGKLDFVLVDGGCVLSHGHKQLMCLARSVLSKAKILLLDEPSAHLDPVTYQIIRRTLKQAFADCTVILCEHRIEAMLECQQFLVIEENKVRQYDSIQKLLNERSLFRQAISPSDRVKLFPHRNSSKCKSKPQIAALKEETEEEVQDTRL

SMILES	EC30 [1] [µM]	EC30 [2]
CC1CN(c2ncccc2C(=O)NS(=O)(=O)c2cccc(O[C@H]3CCN(Cc4ccccc4)C3)n2)C(C)(C)C1 (stereo partly drawn) [Compound 2078, N—[[6-[(3S)-1-benzylpyrrolidin-3-yl]oxy-2-pyridyl]sulfonyl]-2-(2,2,4-trimethylpyrrolidin-1-yl)pyridine-3-carboxamide]	3 to 10	–
Cc1cc(C)c(Cc2nn(C(C)(C)C)cc2C(=O)NS(=O)(=O)c2cccc(N)c2)c(C)c1 [Compound 324, N-(3-aminophenyl) sulfonyl-1-tert-butyl-3-[(2,4,6-trimethylphenyl)methyl]pyrazole-4-carboxamide]	–	++ (“++” means between 3 uM and 10 uM)
Cc1cc(C)c(Cn2c(C(=O)NS(=O)(=O)c3ccccn3)cc3ccccc32)c(C)c1 [Compound 247, N-(2-pyridylsulfonyl)-1-[(2,4,6-trimethylphenyl)methyl]indole-2-carboxamide]	–	+++ (“+++” means <3 uM)
Cc1cc(-c2ccc(C(=O)NS(=O)(=O)c3cccc(N)n3)c(N3C[C@@H](C)CC3(C)C)n2)cc(OCC(C)C)n1 [Compound 2010, N-[(6-amino-2-pyridyl)sulfonyl]-6-(2-isobutoxy-6-methyl-4-pyridyl)-2-[(4S)-2,2,4-trimethylpyrrolidin-1-yl]pyridine-3-carboxamide]	< 3	–
CC(C)COc1cc(F)cc(-c2ccc(C(=O)NS(=O)(=O)c3cccc(N)n3)c(N3CCC[C@H]3C)n2)c1 [Compound 694, N-[(6-amino-2-pyridyl)sulfonyl]-6-(3-fluoro-5-isobutoxy-phenyl)-2-[(2R)-2-methylpyrrolidin-1-yl]pyridine-3-carboxamide]	–	+++ (“+++” means <3 uM)
Cc1cc(C)c(Oc2cc(C(C)(C)C)ncc2C(=O)NS(=O)(=O)c2cccc(N)c2)c(C)c1 [Compound 338, N-(3-aminophenyl)sulfonyl-6-tert-butyl-4-(2,4,6-trimethylphenoxy)pyridine-3-carboxamide]	–	+++ (“+++” means <3 uM)
CC(C)Oc1ccc(-c2nc(N3[C@H](C)CC[C@@H]3C)c(C(=O)NS(=O)(=O)c3cccc(N)n3)cc2Br)cn1 [Compound 390, N-[(6-amino-2-pyridyl)sulfonyl]-5-bromo-2-[(2S,5R)-2,5-dimethylpyrrolidin-1-yl]-6-(6-isopropoxy-3-pyridyl)pyridine-3-carboxamide]	–	+++ (“+++” means <3 uM)
Cc1cc(C)c(CN2Cc3c(C(C)C)cccc3C2C(=O)NS(=O)(=O)c2ccc[nH]c2=O)c(C)c1 (stereo not drawn) [Compound 103, 4-isopropyl-N-[(2-oxo-1H-pyridin-3-yl)sulfonyl]-2-[(2,4,6-trimethylphenyl)methyl]isoindoline-1-carboxamide]	–	+++ (“+++” means <3 uM)
Cc1cc(C)c(CN2Cc3ccccc3[C@H]2C(=O)NS(=O)(=O)c2cccc(N)c2)c(C)c1 [Compound 126, (1S)—N-(3-aminophenyl)sulfonyl-2-[(2,4,6-trimethylphenyl)methyl]isoindoline-1-carboxamide]	–	+++ (“+++” means <3 uM)
C[C@@H]1CN(c2nc(-c3ccc(C(F)(F)F)cc3)ccc2C(=O)NS(=O)(=O)c2cccnc2N)C(C)(C)C1 [Compound 2048, N-[(2-amino-3-pyridyl)sulfonyl]-6-[4-(trifluoromethyl)phenyl]-2-[(4S)-2,2,4-trimethylpyrrolidin-1-yl]pyridine-3-carboxamide]	< 3	–
Cc1cc(C)c(Oc2nc(C3CCC(C)CC3)ccc2C(=O)NS(=O)(=O)c2ccc[nH]c2=O)c(C)c1 (stereo not drawn) [Compound 743, 6-(4-methylcyclohexyl)-N-[(2-oxo-1H-pyridin-3-yl)sulfonyl]-2-(2,4,6-trimethylphenoxy)pyridine-3-carboxamide]	–	+++ (“+++” means <3 uM)
COCCCNc1cccc(S(=O)(=O)NC(=O)c2cccnc2N2CC(C)CC2(C)C)n1 (stereo not drawn) [Compound 2135, N—[[6-(3-methoxypropylamino)-2-pyridyl]sulfonyl]-2-(2,2,4-trimethylpyrrolidin-1-yl)pyridine-3-carboxamide]	3 to 10	–
COc1ccc(COc2cccc(S(=O)(=O)NC(=O)c3ccc(C(C)(C)C)nc3N3CC(C)CC3(C)C)n2)cc1 (stereo not drawn) [Compound 2713]	< 3	–
Cc1cc(C)c(Cn2nc(C(C)(C)C)cc2C(=O)NS(=O)(=O)c2cccc(Cl)c2)c(C)c1 [Compound 472, 5-tert-butyl-N-(3-chlorophenyl)sulfonyl-2-[(2,4,6-trimethylphenyl)methyl]pyrazole-3-carboxamide]	–	+ (“+” means greater than 10 uM)
Cc1ccccc1C(C)n1nc(C(C)(C)C)cc1C(=O)NS(=O)(=O)c1cccc(N)c1 (stereo not drawn) [Compound 342, N-(3-aminophenyl)sulfonyl-5-tert-butyl-2-[1-(o-tolyl)ethyl]pyrazole-3-carboxamide]	–	+++ (“+++” means <3 uM)
CC1CN(c2ncc(-c3ccc(C4(CO)CC4)cc3)cc2C(=O)NS(=O)(=O)c2cccc(N)n2)C(C)(C)C1 (stereo not drawn) [Compound 2112, N-[(6-amino-2-pyridyl)sulfonyl]-5-[4-[1-(hydroxymethyl)cyclopropyl]phenyl]-2-(2,2,4-trimethylpyrrolidin-1-yl)pyridine-3-carboxamide]	3 to 10	–

Now from value to compound:

EC30 [1] [µM]	EC30 [2]	SMILES
< 3	–	CCOCCOCCN(C)c1ncc(-c2ccc(C(=O)NS(=O)(=O)c3cccc(N)n3)c(N3C[C@@H](C)CC3(C)C)n2)cc1C [Compound 2681]
< 3	–	Cc1cc(-c2ccc(C(=O)NS(=O)(=O)c3cccc(N)n3)c(N3C[C@@H](C)CC3(C)C)n2)cnc1NC(C)C [Compound 2685]
3 to 10	–	COc1ncccc1-c1ccc(C(=O)NS(=O)(=O)c2ccc[nH]c2=O)c(N2C[C@@H](C)CC2(C)C)n1 [Compound 2454, 6-(2-methoxy-3-pyridyl)-N-[(2-oxo-1H-pyridin-3-yl)sulfonyl]-2-[(4S)-2,2,4-trimethylpyrrolidin-1-yl]pyridine-3-carboxamide]
3 to 10	–	CCOCCOc1ccc(C(=O)NS(=O)(=O)c2cccc(N)n2)c(N2C[C@@H](C)CC2(C)C)n1 [Compound 2678, N-[(6-amino-2-pyridyl)sulfonyl]-6-(2-ethoxyethoxy)-2-[(4S)-2,2,4-trimethylpyrrolidin-1-yl]pyridine-3-carboxamide]
< 3	–	Cc1cccc(N2CCN(c3cccc(S(=O)(=O)NC(=O)c4cccnc4N4CC(C)CC4(C)C)n3)CC2)n1 (stereo not drawn) [Compound 2285, N—[[6-[4-(6-methyl-2-pyridyl)piperazin-1-yl]-2-pyridyl]sulfonyl]-2-(2,2,4-trimethylpyrrolidin-1-yl)pyridine-3-carboxamide]
< 3	–	C[C@@H]1CN(c2nc(C3=CCCN(C(=O)Cc4ccccc4)C3)ccc2C(=O)NS(=O)(=O)c2cccc(NC(=O)Cc3ccccc3)n2)C(C)(C)C1 [Compound 2243, N—[[6-[(2-phenylacetyl)amino]-2-pyridyl]sulfonyl]-6-[1-(2-phenylacetyl)-3,6-dihydro-2H-pyridin-5-yl]-2-[(4S)-2,2,4-trimethylpyrrolidin-1-yl]pyridine-3-carboxamide]
< 3	–	CC1CN(c2ncccc2C(=O)NS(=O)(=O)c2cccc(Oc3cc(Cl)cc(C#N)c3)n2)C(C)(C)C1 (stereo not drawn) [Compound 2177, N—[[6-(3-chloro-5-cyano-phenoxy)-2-pyridyl]sulfonyl]-2-(2,2,4-trimethylpyrrolidin-1-yl)pyridine-3-carboxamide]
< 3	–	COc1ccc(-c2ccc(C(=O)NS(=O)(=O)c3cccnc3N)c(N3C[C@@H](C)CC3(C)C)n2)c(C)c1 [Compound 2494, N-[(2-amino-3-pyridyl)sulfonyl]-6-(4-methoxy-2-methyl-phenyl)-2-[(4S)-2,2,4-trimethylpyrrolidin-1-yl]pyridine-3-carboxamide]

Reference: patent publication US10758534B2 (Vertex Pharmaceuticals Incorporated, priority 2014, dated 2020)
